Laboratory results reported in article PMC4412288, “Crystal Structures of the Carboxyl cGMP Binding Domain of the Plasmodium falciparum cGMP-dependent Protein Kinase Reveal a Novel Capping Triad Crucial for Merozoite Egress” (PLoS Pathogens, 2015).

Biological target: T1, PfCNB-C (residues 275–428) (Plasmodium falciparum, UniProt Q8I719)
T1 construct: 275–428 for CNB-C; His-tag (pQTEV, TEV site) (N, cleaved yes); made in house; host or cells: E. coli TP2000 (delta-cya)
Test: FP binding measurements, isolated PfCNB-C domain
From the text: A manually designed construct consisting of PfPKG amino acids 1–853 with codons optimized for expression in E.coli was synthesized at Life Technologies. All PfPKG constructs were ligated into the His-tagged bacterial expression vector, pQTEV [28]. In designing the expression constructs of each CNB, we used the sequence of the cGMP selective CNB-B that we recently reported. The domain boundaries for the individual constructs are: residues 1–173 for CNB-A, 158–294 for CNB-B, 275–428 for CNB-C and 401–542 for CNB-D. All PfPKG proteins were expressed in TP2000 E. coli. The cells were grown at 37 °C to an OD600nm of 0.6, then induced with 0.5 mM IPTG, and grown for an additional 10 hours at 25 °C. Cells were harvested by centrifugation, then resuspended in 50 mM potassium phosphate (pH 7.5), 500 mM NaCl and 1 mM β-mercaptoethanol, and lysed using a cell disruptor (Constant Systems).
The direct fluorescence polarization (FP) assay was performed following the procedure from Moll et al. Measurements were performed in 150 mM NaCl, 20 mM MOPS plus 0.005% (w/v) CHAPS pH 7.0 using the Fusion a-FP microtiter plate reader at room temperature in a 384 well microtiterplate (Perkin Elmer, Optiplate, black). The protein concentration was varied while the concentration of 8-Fluo-cAMP/8-Fluo-cGMP (Biolog Life Science Institute (Bremen, Germany)) was fixed at 1–5 nM. […] The KD values were calculated from sigmoidal dose-response curves.
For competition FP experiments, the protein concentration and the concentration of 8-Fluo-cGMP were fixed to give a polarization signal that was 50% of the maximum value obtained from direct FP measurements. […] FP signals were detected as indicated above. Data were analyzed with GraphPad Prism 5.03 by plotting the polarization signal in mPol against the logarithm of the cyclic nucleotide concentration. The EC50 values were calculated from sigmoidal dose-response curves.

T1 sequence (Q8I719 275-428): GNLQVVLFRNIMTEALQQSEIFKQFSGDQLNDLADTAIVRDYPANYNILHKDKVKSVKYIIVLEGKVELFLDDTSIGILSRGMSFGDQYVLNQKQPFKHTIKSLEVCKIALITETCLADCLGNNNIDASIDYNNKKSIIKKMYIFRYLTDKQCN

`Nc1ncnc2c1nc(SCCNC(=S)Nc1ccc(-c3c4ccc(=O)cc-4oc4cc(O)ccc34)c(C(=O)O)c1)n2C1OC2COP(=O)(O)OC2C1O` (centres unmarked) [8-Fluo-cAMP] was tested, and the “affinity of PfCNB-C for the fluorescent nucleotide” value was “very weak affinity”.

With `Nc1nc2c(nc(SCCNC(=S)Nc3ccc4c(c3)C(=O)OC43c4ccc(O)cc4Oc4cc(O)ccc43)n2[C@@H]2O[C@@H]3COP(=O)(O)O[C@H]3[C@H]2O)c(=O)[nH]1` [8-Fluo-cGMP] the “affinity of PfCNB-C for the fluorescent nucleotide” value was “very weak affinity”.
